Experimental data taken from patent US6939850B2, “Altered human interleukin-1β convertase (ICE), NEDD-2, and C. elegans ced-3 polypeptides and uses therefor” (Massachusetts Institute of Technology, priority 1992, dated 2005).

Columns and labels:
[1] = test system: undifferentiated neurons and precursor cells in the neural tube; assay: Cell death in the early neural tube in vivo; design: species or system chick
chick spinal motoneurons = assay: Motoneuron culture deprived of muscle extract, survival; format: cell-based; details: without muscle extract, treated between 14 and 24 hours, counted after 3 days
Source text: A tissue culture model system that allows isolation of a relatively pure population of motoneurons whose survival is dependent on muscle extract, a potent source of target-derived trophic support, was used to test the ability of peptide inhibitors of ICE to block motoneuron cell death (Milligan et al., J Neurobiology 25:1005-1016 (1994) and Block-Gallego et al., Development. 111:221-232 (1991)). The death of motoneurons deprived of trophic support in vitro requires new gene expression and occurs by apoptosis (Milligan et al., J. Neurobiology 25:1005-1016 (1994)). Motoneurons deprived of trophic support at the time of plating become irreversibly committed to undergo cell death after 16-18 hours (Milligan et al., J. Neurobiology 25:1005-1016 (1994)). […] When motoneurons are treated with peptide inhibitors in the absence of muscle extract for three days and subsequently supplemented on day three with muscle extract, they continue to survive, and by six days appear as healthy and differentiated as the motoneurons that were continuously supplied with muscle extract (FIGS. 12A, 12B, 15G). Thus, motoneurons rescued for 3 days by ICE inhibitors remain capable of responding to trophic factors present in muscle extract.
Methods for motoneuron cultures. […]

ICE = biological target: T1, ICE (Homo sapiens, UniProt P29466); details: protease activity of ICE; cited from earlier work
T1 sequence (P29466 120-297): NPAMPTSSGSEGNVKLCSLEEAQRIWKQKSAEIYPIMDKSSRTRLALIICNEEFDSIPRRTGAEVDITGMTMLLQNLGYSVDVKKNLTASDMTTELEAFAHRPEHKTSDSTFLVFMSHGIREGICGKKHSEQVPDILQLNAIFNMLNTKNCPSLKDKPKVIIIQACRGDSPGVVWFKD
T1 sequence (P29466 317-404): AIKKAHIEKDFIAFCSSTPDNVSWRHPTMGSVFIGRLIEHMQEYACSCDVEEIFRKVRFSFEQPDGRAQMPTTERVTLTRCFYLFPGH

Acetyl-Tyr-Val-Ala-Asp-aldehyde [Ac-YVAD-CHO]
survival promoting effects on floorplate or dorsal spinal cord cells ([1]; compared to control animals): no survival promoting effects | Pyknotic Cells in the Early Neural Tube, Dorsal Spinal Cord ([1]; mean ±SD): 1.350 ± 0.297 | Pyknotic Cells in the Early Neural Tube, Floor Plate ([1]; mean ±SD): 1.115 ± 0.246 | motoneuron death (chick spinal motoneurons): inhibitory effects on motoneuron death | Ki (ICE): 0.76 nM
